Data: patent US11839671B2, “Oral care compositions comprising tin ions” (The Procter & Gamble Company, priority 2019, dated 2023)

Experiment: Solubility of tin ions in polyol solutions with SnF2 at various pH (visual appearance)
Format: physicochemical
Conditions: for Appearance of polyol solution with SnF2, pH 2-4 / Appearance of polyol solution with SnF2, pH 4-6 / Appearance of polyol solution with SnF2, pH 6-8 / Appearance of polyol solution with SnF2, pH 8-10: aqueous polyol solution + 0.45 g SnF2; for Appearance of polyol solution with SnF2, pH 2-4 / Appearance of polyol solution with SnF2, pH 4-6 / Appearance of polyol solution with SnF2, pH 6-8: cloudy = insoluble tin complexes formed; for Appearance of polyol solution with SnF2, pH 8-10: cloudy = Sn(OH)2 formed; for Appearance of polyol/stannous fluoride solution at a pH of greater than 7: aqueous polyol/stannous fluoride solution, pH greater than 7, cloudy = Sn(OH)2 formation not prevented
Protocol: A 30% (w/w) solution was prepared for each polyol was prepared using the appropriate amount of the pure polyol and deionized water. Next, 46 g of the 30% (w/w) polyol solution was placed in a 250 mL glass beaker with a stirring bar on top of a magnetic stirring apparatus. 21 g of deionized water was added to the glass beaker and the magnetic stirring apparatus was started to commence stirring of the solution. A pH electrode was connected to a pH meter (VWR Scientific, Model 9100, Radnor, Pa.) and the pH electrode (ThermoFisher Scientific, Orion 8165BNWP, Waltham, Mass.) was placed in the stirring polyol solution.
0.45 grams of a tin ion source, such as stannous fluoride, was added to the stirring polyol solution. The pH was recorded once the tin ion source was completely added. The pH of the solution was increased by dropwise addition of a 33% (w/w) solution of NaOH.
0.45 grams of a tin ion source, such as stannous fluoride, was added to the stirring polyol solution. The pH was recorded once the tin ion source was completely added. The pH of the solution was decreased by dropwise addition of a 33% (w/w) solution of HCl.
A solution that appeared cloudy indicated the formation of insoluble tin complexes. At a pH of greater than 7, a cloudy solution indicated the formation of Sn(OH)2. FIG. 1-4 illustrates TABLE 2 by showing the appearance of each solution described in TABLE 2.

Row | SMILES | Appearance of polyol solution with SnF2, pH 2-4 | Appearance of polyol solution with SnF2, pH 2-4 (listed as xylitol) | Appearance of polyol solution with SnF2, pH 4-6 | Appearance of polyol solution with SnF2, pH 4-6 (listed as xylitol) | Appearance of polyol solution with SnF2, pH 6-8 | Appearance of polyol solution with SnF2, pH 6-8 (listed as xylitol) | Appearance of polyol solution with SnF2, pH 8-10 | Appearance of polyol solution with SnF2, pH 8-10 (listed as xylitol) | Appearance of polyol solution with SnF2, pH 2-4 (listed as sorbitol) | Appearance of polyol solution with SnF2, pH 4-6 (listed as sorbitol) | Appearance of polyol solution with SnF2, pH 6-8 (listed as sorbitol) | Appearance of polyol solution with SnF2, pH 8-10 (listed as sorbitol) | Appearance of polyol/stannous fluoride solution at a pH of greater than 7
1 | OC[C@@H](O)[C@H](O)[C@@H](O)CO [Xylitol (5 Carbon), Xylitol] | Clear | clear | Cloudy | cloudy | Cloudy | cloudy | Clear | clear |  |  |  |  | 
2 | OC[C@@H](O)[C@@H](O)[C@H](O)[C@@H](O)CO [Sorbitol (6 Carbon), Sorbitol] | Clear |  | Cloudy |  | Cloudy |  | Clear |  | clear | cloudy | cloudy | clear | 
3 | OC[C@@H](O)[C@@H](O)CO [Erythritol (4 Carbon), Erythritol] | Clear |  | Cloudy |  | Cloudy |  | Cloudy |  |  |  |  |  | cloudy
4 | OCC(O)CO [Glycerin (3 Carbon), Glycerin] | Clear |  | Clear |  | Cloudy |  | Cloudy |  |  |  |  |  | cloudy
